≈ marks a conversion by molar mass, not a printed value. Like-named read-outs stand apart in the source and are kept apart here. Numbered stars: 1 amine (or outer) side, 2 acyl side, 3 side chain; on linkers, the order of the positions; unused ones are H or OH. Bridge positions count the residues as written; N and C are the ends. Square brackets hold non-standard residues; d marks the D form. Peptide text beside a SMILES is read from it. * marks the point of attachment. X1 = O=C1C[C@@H](C(=O)[*:2])N([*:1])C[C@H]1CS[C@@H]1CN2CCC1CC2; NMePhe(4-NMe2) = CN[C@@H](Cc1ccc(N(C)C)cc1)C(=O)O; Picolinoyl(3-OH) = O=C(c1ncccc1O)*; Phg = N[C@H](C(=O)O)c1ccccc1; dAbu = CC[C@@H](N)C(=O)O
Experiments:
[1] = cited from earlier work
[2] = test system: VREf isolates; assay: microbe, parasite or virus in culture
Procedure: (§1) Initial organism identification and susceptibility determination were performed via MALDI-TOF MS (Bruker Daltonics, Billerica, MA, USA) and MicroScan Walkaway (Beckman Coulter, Brea, CA), respectively, in the clinical microbiology laboratory. Pure colonies of the VREf isolates cultured from the CSF on hospital days 33 and 57 and from blood on days 35 and 52 were sub-cultured to BD BBL chocolate II agar slants (Becton, Dickinson and Company, Sparks, MD, USA) and shipped immediately overnight to the research laboratory where all subsequent testing was performed. Identification and resistance marker detection was confirmed via the Verigene Gram-positive blood culture assay (Luminex, Northbrook, IL, USA).
Minimum inhibitory concentrations were determined in triplicate according to CLSI guidelines. Modal MIC values are reported.

[3] = test system: VREf; assay: microbe, parasite or virus in culture; format: cell-based, Enterococcus faecium; conditions: for local laboratory susceptibility result: VREf blood isolate of hospital day 22
Procedure: as §1

[4] = cited from earlier work; remark: listed apart in the source
[5] = test system: VREf isolate cultured from the CSF on hospital day 33; assay: Time-kill experiments; format: cell-based, Enterococcus faecium; conditions: at mean measured CSF concentration; triplicate
Procedure: Next, the 5 drugs were tested in combination at their respective extrapolated maximal CSF concentration as described.

[6] = Estimated unbound plasma concentration, CSF/plasma penetration and projected maximum CSF concentration extrapolated from published pharmacokinetic data; conditions: for CSF/plasma ratio: this patient
Procedure: (§2) CSF samples were immediately frozen at −80 °C and shipped overnight on dry ice. […] Results are presented as the mean (±SD) of the two measured CSF concentrations. Additionally, estimated corresponding unbound plasma concentrations at the time of CSF collection were extrapolated for each agent from published pharmacokinetic data in order to establish an estimate of the degree of CSF/plasma penetration. This % CSF/plasma penetration was then utilized to predict the maximum post-dose CSF concentration on the basis of the peak free plasma concentration (fCmax) and the time of fCmax (Tmax) of each agent. Finally, these predictions were evaluated against published data, all of which were restricted to animal studies except for tigecycline.

[7] = cited from earlier work; remark: listed apart in the source
Excerpt: Almost exactly 2 days had elapsed between the time of the patient’s last oritavancin dose and the time of CSF collection.

[8] = CSF drug concentrations from day 57 lumbar puncture by LC-MS/MS; conditions: one patient, systemic dosing at steady state, LLOQ 0.001 mg/L, mean of two CSF tubes, time after last dose: gentamicin 77:30, oritavancin 46:54, tigecycline 8:27, tedizolid 8:25, quinupristin/dalfopristin 2:00 h:m
Procedure: as §2

[9] = parameters: method as in PMID 11408247; conditions: animal study; cited from earlier work
[10] = parameters: method as in PMID 16982782, PMID 17043116, PMID 21585240, PMID 25216547; conditions: cited from earlier work
[11] = parameters: method as in PMID 31295511; conditions: average in uninfected rats; cited from earlier work
[12] = VREf isolate from CSF, hospital day 33, CLSI M100-S30 unless footnoted (b: CLSI vancomycin-susceptible E. faecalis; c: FDA E. faecalis; d: EUCAST v.10.0 E. faecium)
[13] = VREf isolate from CSF, hospital day 57, CLSI M100-S30 unless footnoted
[14] = VREf isolate from blood, hospital day 35, CLSI M100-S30 unless footnoted
[15] = VREf isolate from blood, hospital day 52, CLSI M100-S30 unless footnoted
[16] = VREf blood isolate returning after 11 days of daptomycin therapy
[17] = Enterococcus faecium, VREf isolate from CSF, hospital day 57, modal MIC of triplicate, CLSI guidelines
[18] = Enterococcus faecium, VREf isolate from blood, hospital day 52, modal MIC of triplicate, CLSI guidelines
[19] = Enterococcus faecium, VREf isolate from CSF, hospital day 33, modal MIC of triplicate, CLSI guidelines
[20] = Enterococcus faecium, VREf isolate from blood, hospital day 35, modal MIC of triplicate, CLSI guidelines
[21] = VREf isolate from CSF, hospital day 33, modal MIC of triplicate, CLSI guidelines
[22] = VREf isolate from CSF, hospital day 57, modal MIC of triplicate, CLSI guidelines
[23] = VREf isolate from blood, hospital day 35, modal MIC of triplicate, CLSI guidelines
[24] = VREf isolate from blood, hospital day 52, modal MIC of triplicate, CLSI guidelines

SMILES | Interpretive Category [2, 12] | Interpretive Category [2, 13] | Interpretive Category [2, 14] | Interpretive Category [2, 15] | MIC [2, 17] [mg/L] | MIC [2, 18] [mg/L] | MIC [2, 19] [mg/L] | MIC [2, 20] [mg/L] | also measured
CCN(CC)CCS(=O)(=O)[C@@H]1CCN2C(=O)c3coc(n3)CC(=O)C[C@H](O)/C=C(C)/C=C/CNC(=O)/C=C/[C@@H](C)[C@@H](C(C)C)OC(=O)[C@@H]12 [Dalfopristin] |  |  |  |  |  |  |  |  | Published % CSF/Plasma Penetration ([1]; rabbit pneumococcal meningitis data): 0 [23, 27] %
CCCCCCCCCC(=O)N[C@@H](Cc1c[nH]c2ccccc12)C(=O)N[C@H](CC(N)=O)C(=O)N[C@@H](CC(=O)O)C(=O)N[C@@H]1C(=O)NCC(=O)N[C@@H](CCCN)C(=O)N[C@@H](CC(=O)O)C(=O)N[C@H](C)C(=O)N[C@@H](CC(=O)O)C(=O)NCC(=O)N[C@H](CO)C(=O)N[C@@H]([C@H](C)CC(=O)O)C(=O)N[C@@H](CC(=O)c2ccccc2N)C(=O)O[C@@H]1C [Daptomycin] | R | R | R | R |  |  |  |  | MIC [2]: ≥8 mg/L; local laboratory susceptibility result [3]: resistance; susceptibility category [3, 16]: resistant; susceptibility category ([3]; first episode of VREf bacteremia, 2.5 months before admission): susceptible dose-dependent
CN(C)[C@@H]1C(O)=C(C(N)=O)C(=O)[C@@]2(O)C(O)=C3C(=O)c4c(O)c(NC(=O)CN5CCCC5)cc(F)c4C[C@H]3C[C@@H]12 [Eravacycline] |  | S |  | S | 0.12 | 0.12 |  |  | CNS penetration ([1]; rabbits): virtually zero
CC(=O)NC[C@H]1CN(c2ccc(N3CCOCC3)c(F)c2)C(=O)O1 [Linezolid] | R | R | R | R | 16 | 16 | 16 | 16 | CSF penetration ([4]; human, in vivo): 66–85%; MIC ([3]; Enterococcus faecium, VREf blood isolate returning after 11 days of daptomycin therapy, daptomycin by broth microdilution): 2 mg/L (≈ 5.93 µM); local laboratory susceptibility result [3]: resistance; susceptibility category [3, 16]: susceptible
CN(C)c1cc(CNCC(C)(C)C)c(O)c2c1C[C@H]1C[C@H]3[C@H](N(C)C)C(O)=C(C(N)=O)C(=O)[C@@]3(O)C(O)=C1C2=O [Omadacycline] | R | R | R | R | 1 | 1 | 1 | 1 | 
CN[C@H](CC(C)C)C(=O)N[C@H]1C(=O)N[C@@H](CC(N)=O)C(=O)N[C@H]2C(=O)N[C@H]3C(=O)N[C@H](C(=O)N[C@H](C(=O)O)c4cc(O)cc(O)c4-c4cc3ccc4O)[C@H](O[C@H]3C[C@](C)(N)[C@@H](O)[C@H](C)O3)c3ccc(c(Cl)c3)Oc3cc2cc(c3O[C@@H]2O[C@H](CO)[C@@H](O)[C@H](O)[C@H]2O[C@H]2C[C@](C)(NCc3ccc(-c4ccc(Cl)cc4)cc3)[C@@H](O)[C@H](C)O2)Oc2ccc(cc2Cl)[C@H]1O [Oritavancin] |  |  |  |  |  |  |  |  | bacterial growth (increase) at 24 h compared to the starting inoculum [5]: 0.69 log10 CFU/mL; projected maximal CSF concentration at plasma Tmax ([6]; point estimate): 0.014 mg/L; CSF/plasma ratio ([6]; point estimate): 0.07%; MIC [2, 21]: 0.25 mg/L; MIC [2, 22]: 0.25 mg/L; MIC [2, 23]: 0.25 mg/L; MIC [2, 24]: 0.25 mg/L; fCmax ([7]; plasma, after a 1200 mg dose, published pharmacokinetic data, ref not given): 20.7 mg/L; half-life ([7]; plasma, published pharmacokinetic data, ref not given): 245 h; Mean (±SD) Measured CSF Concentration [8]: 0.013 ± 0.005 mg/L; Published % CSF/Plasma Penetration [9]: 1–5 [26] %
CC[C@H]1NC(=O)[C@@H](NC(=O)c2ncccc2O)[C@@H](C)OC(=O)[C@H](c2ccccc2)NC(=O)[C@@H]2CC(=O)[C@H](CS[C@@H]3CN4CCC3CC4)CN2C(=O)[C@H](Cc2ccc(N(C)C)cc2)N(C)C(=O)[C@@H]2CCCN2C1=O [Quinupristin] ({Picolinoyl(3-OH)}-T[dAbu]P[NMePhe(4-NMe2)][X1][Phg]; ester 1-C) |  |  |  |  |  |  |  |  | Published % CSF/Plasma Penetration ([1]; rabbit, in vivo): 0 [23, 27] %
CO[C@H]1/C=C/O[C@@]2(C)Oc3c(C)c(O)c4c(O)c(c(/C=N/N5CCN(C)CC5)c(O)c4c3C2=O)NC(=O)/C(C)=C\C=C\[C@H](C)[C@H](O)[C@@H](C)[C@@H](O)[C@@H](C)[C@H](OC(C)=O)[C@@H]1C [Rifampin] | R | R | R | R | ≥ 4 | ≥ 4 | ≥ 4 | ≥ 4 | 
Cn1nnc(-c2ccc(-c3ccc(N4C[C@H](CO)OC4=O)cc3F)cn2)n1 [Tedizolid] |  |  |  |  | 2 | 2 | 2 | 2 | protein binding [10]: 80%; Published % CSF/Plasma Penetration [11]: 2.2 [16] %; projected maximal CSF concentration at plasma Tmax ([6]; in vivo): roughly 0.3 mg/L; CSF/plasma ratio ([6]; point estimate): approximately 50%; half-life ([7]; in vivo, iv): 12 h; steady-state plasma fCmax ([7]; in vivo, iv): 0.6 mg/L
CCCCCCCCCCNCCN[C@@]1(C)C[C@H](O[C@H]2[C@H](Oc3c4cc5cc3Oc3ccc(cc3Cl)[C@@H](O)[C@@H](NC(=O)[C@@H](CC(C)C)NC)C(=O)N[C@@H](CC(N)=O)C(=O)N[C@H]5C(=O)N[C@H]3C(=O)N[C@H](C(=O)N[C@H](C(=O)O)c5cc(O)c(CNCP(=O)(O)O)c(O)c5-c5cc3ccc5O)[C@H](O)c3ccc(c(Cl)c3)O4)O[C@H](CO)[C@@H](O)[C@@H]2O)O[C@@H](C)[C@H]1O [Telavancin] |  |  |  |  |  |  |  |  | MIC [2, 21]: ≥4 mg/L; MIC [2, 22]: ≥4 mg/L; MIC [2, 23]: ≥4 mg/L; MIC [2, 24]: ≥4 mg/L
CN(C)[C@@H]1C(O)=C(C(N)=O)C(=O)[C@@]2(O)C(O)=C3C(=O)c4c(O)cccc4[C@@](C)(O)[C@H]3C[C@@H]12 [Tetracycline] | R | R | R | R |  |  |  |  | 
CN(C)c1cc(NC(=O)CNC(C)(C)C)c(O)c2c1C[C@H]1C[C@H]3[C@H](N(C)C)C(O)=C(C(N)=O)C(=O)[C@@]3(O)C(O)=C1C2=O [Tigecycline] | S | S | S | S | 0.25 | 0.25 | 0.25 | 0.25 | projected maximal CSF concentration at plasma Tmax ([6]; in vivo): approximately 0.197 mg/L; CSF/plasma ratio ([6]; point estimate): 65.5%; half-life ([7]; in vivo): ≈ 30 h; penetration ratios ([4]; a patient with cerebritis due to Acinetobacter): 7–36%; Published % CSF/Plasma Penetration ([4]; human, in vivo): 5–41 [21, 22] %
CN[C@H](CC(C)C)C(=O)N[C@H]1C(=O)N[C@@H](CC(N)=O)C(=O)N[C@H]2C(=O)N[C@H]3C(=O)N[C@H](C(=O)N[C@H](C(=O)O)c4cc(O)cc(O)c4-c4cc3ccc4O)[C@H](O)c3ccc(c(Cl)c3)Oc3cc2cc(c3O[C@@H]2O[C@H](CO)[C@@H](O)[C@H](O)[C@H]2O[C@H]2C[C@](C)(N)[C@H](O)[C@H](C)O2)Oc2ccc(cc2Cl)[C@H]1O [Vancomycin] | R | R | R | R |  |  |  |  | MIC [2, 21]: ≥256 mg/L; MIC [2, 22]: ≥256 mg/L; MIC [2, 23]: ≥256 mg/L; MIC [2, 24]: ≥256 mg/L
